test system: H3K27me3 mark in Hela cells expressing wild type EZH2; assay: H3K27me3 MSD Hela Assay; assay type: cell-based; details: Homo sapiens, HeLa, 96 h, read-out: H3K27me3_MSD_HeLa (EC50)
Description: H3K27me3 MSD Hela Assay. Trypsinized HeLa cells were counted and diluted in 10% DMEM (Life Technologies, Cat. #10569) to 5000 cells/75 μL. Seventy-five μL of cells were place in each well of a 96-well flat-bottomed plate and incubated at 37° C. for 4 hours. Twenty-five μL of test compound (at various concentrations) was added to the cells and incubation continued at 37° C. for 96 hours. Media was then removed and the cells rinsed once with ice cold PBS. Forty μL of ice-cold MSD Buffer AT (10 mM HEPES, pH 7.9, 5 mM MgCl2, 0.25M sucrose, Benzonase (1:10000), 1% Triton X-100 supplemented with fresh 1× Protease Inhibitor cocktail and 1 mM 4-(2-Aminoethyl)benzenesulfonyl fluoride hydrochloride (AEBSF)) was added to each well and the plates placed on ice for 30 minutes. Ten μL of 5M NaCl was then added to each well and incubation on ice continued for another 15 minutes. The material in each well was suspended pipetting up and down and then transferred to a new 96 well plate. The emptied wells were rinsed with 150 uL ice-cold 20 mM Tris pH 7.5, 1 mM EDTA, 1 mM EGTA, supplemented with fresh 1× Protease Inhibitor cocktail and 1 mM AEBSF (“NO salt NO detergent buffer) and transferred to the respective wells in the new plate. Three hundred μL of NO Salt NO detergent buffer was then added to each well of lysates and the plates frozen at −80° C.
On the same day, an appropriate number of MSD standard bind 96-well plates were coated with 30 μL/well of total H3 capture antibody (Millipore, Cat # MAB3422) at 1 μg/mL concentration in PBS. The antibody solution was evenly distributed first by tapping gently on the sides of the plates and then by shaking the plates for a few minutes at 1000 rpm. Antibody coated plates were stored at 4° C. overnight.
The next day the lysates are thawed to RT. The antibody coated MSD plates are washed 3× with TBS-T (Tris-buffered saline (Fisher Scientific, Cat #BP2471-1)+0.2% Tween-20). One-hundred fifty μL of 5% Blocker A in TBS-T is added to each well. The wells are covered and shaken on a shaker at RT for one hour. The Blocker A step is repeated a second time. After removing the blocker, 25 μL of cell lysate is transferred into each antibody coated well. The plates are shaken for 2 hours at RT, the lysate removed and the plates again washed with Blocker A in TBS-T. Twenty-five μL of appropriate freshly prepared antibody mix (including both primary and secondary antibodies) is added to each well and the plates shaken for 1 hour at RT.
Both H3 antibodies were obtained from Cell Signalling (Cat #s 4499 and 9733). The goat anti-rabbit antibody was obtained from Meso-Scale Discovery (Cat #R32AB-1).
The antibody mix was then removed and the wells washed with Blocker A. One hundred-fifty μL of freshly prepared 1×MSD Read Buffer (Meso-Scale Discovery; Cat #R927C-2) was then added to each well and the plates read on a MSD Sector 2400 Plate Reader.
Data was analyzed using Assay Assistant (Constellation Pharmaceuticals In-house product) and Activity Base (IDBS Ltd, Surrey, UK) template. Data files were imported to Assay Assistant and assay conditions were specified. A unique Analysis ID was created and the data files exported to Activity Base. An analysis template was created on Activity Base to measure dose-dependent inhibition of H3K27me3 mark and cell viability respectively. Readout of DMSO wells were used to normalize the data. Resulting curves were fitted using Activity base software Model 205 (IDBS Ltd, Surrey, UK). The data was checked for quality, validated and integrated in excel format using SARview (IDBS Ltd, Surrey, UK).

Row | EC50 | SMILES
1 | < 400 nM | COc1cc(C)[nH]c(=O)c1CNC(=O)c1c(C)c(C(C)c2ccccc2)n2ncccc12 (racemic) [Compound 101, (±)-N-((4-methoxy-6-methyl-2-oxo-1,2-dihydropyridin-3-yl)methyl)-6-methyl-7-(1-phenylethyl)pyrrolo[1,2-b]pyridazine-5-carboxamide]
2 | < 400 nM | COc1cc(C)[nH]c(=O)c1CNC(=O)c1c(C)c(C(C)C2CCOCC2)n2ncccc12 (racemic) [Compound 116, (±)-N-((4-methoxy-6-methyl-2-oxo-1,2-dihydropyridin-3-yl)methyl)-6-methyl-7-(1-(tetrahydro-2H-pyran-4-yl)ethyl)pyrrolo[1,2-b]pyridazine-5-carboxamide]
3 | < 400 nM | COc1cc(C)[nH]c(=O)c1CNC(=O)c1c(C)c(C(C)c2ccccc2)n2ncccc12 (single isomer, unassigned) [Compound 105, (R or S)-N-((4-methoxy-6-methyl-2-oxo-1,2-dihydropyridin-3-yl)methyl)-6-methyl-7-(1-phenylethyl)pyrrolo[1,2-b]pyridazine-5-carboxamide]

Source: patent publication US9745305B2, “Modulators of methyl modifying enzymes, compositions and uses thereof” (Constellation Pharmaceuticals, Inc., priority 2013, dated 2017)
